Measured values as given in patent US20250154180A1, “CRK-LIKE (CRKL) ADAPTOR PROTEIN INHIBITORS AND METHODS OF MAKING AND USING THE SAME” (Rutgers, The State University of New Jersey, priority 2022, published 2025).

Experiments:
[1] = test system: CrkL (phosphorylation at Y207 by Ab1); assay: AlphaScreen of Ab1 phosphorylation of CrkL at Y207; assay type: biochemical; conditions: positive hits defined as a 50% decrease in Alpha signal vs DMSO
Hs578T cells = assay: MTT proliferation assay, Hs578T; assay type: cell-based; conditions: 2.5 μM, 48 hours, vs DMSO
Protocol: (§1) MTT assay—The MTT assay was used to detect cell proliferation. Briefly, cells were plated in a 96-well plate at a density of 50,000 cells/well in 200 μl of culture medium with candidate drugs to be tested (DMSO as a negative control). The treated cells were incubated for four hours a 37° C. with a 5% CO2 incubator to allow dark crystals to form at the bottom of the wells. After culturing for 48 hours, 10 ml of MTT reagent was added to each well and mixed gently for one minute. After aspirating the culture medium from each well, 100 μl of crystal dissolving solution was added to each well and incubated for 10 minutes at RT. The signal was quantified by measuring the absorbance in each sample at 570 nm using a microplate reader.

MDA-MB-231 cells = assay: MTT proliferation assay, MDA-MB-231; assay type: cell-based
Protocol: as §1
Compound II is referred to as “NC5-SO2F” in FIGS. 7A-7C.
(§2) Cell proliferation was first determined by MTT assay as confirmation. […] CrkL is known to mediate the activation of both Raf/ERK and PI3K pathways. So, proteins that relate to these two pathways were utilized.

MDA-MB-468 cells [2] = assay: MTT proliferation assay, MDA-MB-468; assay type: cell-based
Protocol: as §1, with “After culturing for 48 hours, 10 ml of MTT reagent was added to each well and mixed gently for one minute.” left out
as §2

MDA-231-GFP-LUC cells = assay: MTT assay, MDA-231-GFP-LUC; assay type: cell-based; conditions: five M Pomiferin for three days
Protocol: as §1, with “After culturing for 48 hours, 10 ml of MTT reagent was added to each well and mixed gently for one minute.” left out
To further test the inhibitory specificity of Pomiferin for specific breast cancer cell lines, The survival percentage was compared between different hematopoietic cancer cell lines and healthy PBMCs.

[3] = Mouse toxicity assays (serum ALT, AST, BUN, creatinine); assay type: in vivo, mice; conditions: mouse, in vivo
Protocol: Three mice were treated in each group. Blood samples were collected from every mouse in pre-treatment and post-treatment (20 days), and serum was obtained for alanine aminotransferase (ALT, SGPT, FIG. 12A), aspartate aminotransferase (AST, SGOT, FIG. 12B), blood urea nitrogen (BUN, FIG. 12C), and creatinine (FIG. 12D) tests to monitor liver and kidney toxicity. The normal Reference Ranges for ALT is 17-77 IU/L; AST is 54-298 IU/L; BUN is 18.5-33.3 mg/dL; Cr is 0-0.40 mg/dL.
Mouse toxicity assays—Blood was collected from the submandibular facial vein following IACUC guidelines (CMP, Houston Methodist Research Institute and Rutgers University) before and 20-day after the drug treatment. The Department of Veterinary Medicine & Surgery, MD Anderson Cancer Center, performed the clinical biochemistry and pharmacokinetics tests. Blood serum chemistry analysis included alanine transaminase (ALT), aspartate transaminase (AST), blood urea nitrogen (BUN), and creatinine level measurements.
Alanine aminotransferase (ALT, SGPT), aspartate aminotransferase (AST, SGOT), blood urea nitrogen (BUN), and creatinine levels were examined to determine liver and kidney toxicity of Pomiferin treatments in vivo. […] Nevertheless, these changes have no physiological significance because ALT, AST and BUN levels in all mice were within normal mouse reference ranges. […]

MDA-MB-468 cells [4] = assay: Annexin V/PI apoptosis, MDA-MB-468; assay type: cell-based; conditions: 10 uM, 24 hours
Protocol: Annexin V/PI Staining—Experimental cells were collected, washed with 1×PBS, resuspended in the binding buffer, and stained with an Annexin V-FITC assay Kit (Millipore Sigma). The cells were incubated with 50 μg/ml Annexin V in 1× binding buffer at room temperature for 15 minutes, then 10 μg/ml propidium iodide for another 15 minutes and analyzed by flow cytometry (EPICS XL). Annexin V-positive/PI-negative cells were considered early apoptotic, cells with both Annexin V and PI-positive to be late apoptotic, and Annexin V negative but PI-positive to be “necrotic.” The percent of apoptosis was calculated as the sum of the percentages of both early and late apoptotic cells.
To figure out the features of cytotoxic effects of Pomiferin on breast cancer cells. Pomiferin-treated breast cancer cells were stained with an Annexin V/PI kit and measured them with Flow Cytometry.

[5] = test system: pCrkL, P-ERK1/2, pJNK, BIM in MDA-231 and MDA-468 cells; assay: Western blotting of pCrkL and downstream proteins, breast cancer cells; assay type: cell-based
Protocol: Western blotting—According to the company's protocol (Thermo Scientific, Waltham, MA). Western blotting was performed using 20 μg of total cell extracts. Briefly, transferred membranes were incubated with primary antibodies for […] according to the sensitivity of each antibody, followed by HRP-linked secondary antibody for 1 hour. Each membrane was stripped and re-probed for b-actin, which was used as an internal loading control. The protein bands were visualized using a chemiluminescence detection system (Thermo Scientific). The relative optical densities of each band were quantitated and indicated numerically below the bands in each Western blot.
as §2, with “To investigate the molecular mechanisms of Pomiferin-induced apoptosis in breast cancer cells. […] Cell” for “Cell”
The Integrated Density Values (IDV) of each band were measured and shown under each blot. […] Inhibition of pCrkL breaks the balance of cell proliferation and death in triple-negative breast cancer cells by regulating these signaling transduction pathways (FIG. 15). The different expression of these proteins in TNBC vs. normal immune cells makes Pomiferin and compounds disclosed herein a candidate for cancer therapy.

[6] = test system: PBNK cells killing activity towards MDA-MB-231; assay: Cr51 release assay, PBNK killing of MDA-MB-231; assay type: cell-based; conditions: 1 uM overnight
Protocol: PBNK cells were incubated with 1 uM NC5 or Compound III overnight, then cells were harvested for Cr51 release assay to check cell cytotoxicity. […] The star symbol indicates the significance of vehicle control vs. NC5 of the indicated E:T ratios. *p<0.05, **p<0.01, n=3.

With CC(C)=CCc1c2c(c3occ(-c4ccc(O)c(O)c4)c(=O)c3c1O)C=CC(C)(C)O2 [Pomiferin, 3′,4′,5-Trihydroxy-6″,6″-dimethyl-6-(3-methylbut-2-en-1-yl)-6″H-pyrano[2″,3″:7,8]isoflavone] the “AlphaScreen hit (inhibition of Crk phosphorylation)” value [1] was “identified hit”, the “cell proliferation (MTT)” value (Hs578T cells) was “had an inhibitory effect on proliferation” and the “cell proliferation (MTT)” value (MDA-MB-231 cells; 1 uM, 5 uM and 10 uM, 24 hours) was “significantly inhibited cell proliferation”. For the same compound, the “cell proliferation (MTT)” value (MDA-MB-231 cells; 2.5 μM, 48 hours, vs DMSO) was “blocked cell proliferation”, the “cell proliferation (MTT)” value (MDA-MB-468 cells [2]; 1 uM, 5 uM and 10 uM, 24 hours) was “significantly inhibited cell proliferation” and the “cell proliferation (MTT)” value (MDA-MB-468 cells [2]; 2.5 μM, 48 hours, vs DMSO) was “inhibited cell proliferation”. The “sensitivity to Pomiferin (survival percentage, MTT)” value (MDA-231-GFP-LUC cells) was “most sensitive cell to Pomiferin treatment”, the “damage to the liver and kidneys” value [3] was “little to no damage to the liver and kidneys” and the “percentage of apoptotic cells” value (MDA-MB-468 cells [4]) was “significantly increased”. The “P-ERK1/2 levels (Western blotting)” value ([5]; NC5 1, 5, 10 uM, 24 hours) was “reduces P-ERK1/2 levels”, the “pCrkL levels (Western blotting)” value ([5]; NC5 1, 5, 10 uM, 24 hours) was “dramatically inhibited” and the “BIM levels (Western blotting)” value ([5]; NC5, 24 hours) was “dramatically increased”. For the same compound, the “pJNK levels (Western blotting)” value ([5]; NC5, 24 hours) was “dramatically increased” and the “PBNK cells killing activity (Cr51 release)” value [6] was “increased PBNK cells killing activity”.
